Results as given in the supplement of paper PMC10307832.

Key:
Experiment in all cases: relative viability (nuclei count vs DMSO), 5 days (fraction); higher = more cells survive
Dabrafenib + Lapatinib = compound: CC(C)(C)c1nc(-c2cccc(NS(=O)(=O)c3c(F)cccc3F)c2F)c(-c2ccnc(N)n2)s1 [Dabrafenib] + CS(=O)(=O)CCNCc1ccc(-c2ccc3ncnc(Nc4ccc(OCc5cccc(F)c5)c(Cl)c4)c3c2)o1 [Lapatinib] (partner 2 µM)
Method in brief: (§1)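 Relative viability equals treated-well nuclei counts divided by vehicle-well nuclei counts. Counts came from 4× images of lung cancer cell lines grown in 1536-well plates for 5 days after pin-tool dosing on the day after seeding. Dosing used one drug alone or a fixed anchor-drug dose plus five library-drug doses (not always all listed) in √10 steps, and values are medians of duplicate plates.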

VX-702 + Palbociclib = compound: NC(=O)c1ccc(N(C(N)=O)c2c(F)cccc2F)nc1-c1ccc(F)cc1F [VX-702] + CC(=O)c1c(C)c2cnc(Nc3ccc(N4CCNCC4)cn3)nc2n(C2CCCC2)c1=O [Palbociclib] (partner 0.5 µM)
Method in brief: as §1

VX-702 + Luminespib = compound: NC(=O)c1ccc(N(C(N)=O)c2c(F)cccc2F)nc1-c1ccc(F)cc1F [VX-702] + CCNC(=O)c1noc(-c2cc(C(C)C)c(O)cc2O)c1-c1ccc(CN2CCOCC2)cc1 [Luminespib] (partner 0.01 µM)
Method in brief: as §1

VX-702 + Phenformin = compound: NC(=O)c1ccc(N(C(N)=O)c2c(F)cccc2F)nc1-c1ccc(F)cc1F [VX-702] + N=C(N)NC(=N)NCCc1ccccc1 [Phenformin] (partner 250 µM)
Method in brief: as §1

| Cell Line | relative viability (Dabrafenib + Lapatinib; first compound 0.009487 µM) | relative viability (Dabrafenib + Lapatinib; first compound 0.03 µM) | relative viability (Dabrafenib + Lapatinib; first compound 0.09487 µM) | relative viability (Dabrafenib + Lapatinib; first compound 0.3 µM) | relative viability (VX-702 + Palbociclib; first compound 0.02 µM) | relative viability (VX-702 + Palbociclib; first compound 0.2 µM) | relative viability (VX-702 + Palbociclib; first compound 0.6325 µM) | relative viability (VX-702 + Palbociclib; first compound 2 µM) | relative viability (VX-702 + Luminespib; first compound 0.02 µM) | relative viability (VX-702 + Luminespib; first compound 0.2 µM) | relative viability (VX-702 + Luminespib; first compound 0.6325 µM) | relative viability (VX-702 + Luminespib; first compound 2 µM) | relative viability (VX-702 + Phenformin; first compound 0.02 µM) | relative viability (VX-702 + Phenformin; first compound 0.2 µM) | relative viability (VX-702 + Phenformin; first compound 0.6325 µM) | relative viability (VX-702 + Phenformin; first compound 2 µM) | relative viability (Dabrafenib + Lapatinib; first compound 0.003 µM) |
| --- | --- | --- | --- | --- | --- | --- | --- | --- | --- | --- | --- | --- | --- | --- | --- | --- | --- |
| NCI-H647 | 1.24 | 0.812 | 1.01 | 0.893 | 0.349 | 0.373 | 0.378 | 0.495 | 0.216 | 0.478 | 0.143 | 0.17 | 0.487 | 0.654 | 0.46 | 0.728 | – |
| NCI-H650 | 1.1 | 0.623 | 0.514 | 0.435 | 0.349 | 0.327 | 0.326 | 0.348 | 0.661 | – | 0.78 | 0.961 | 0.515 | – | 0.44 | 0.524 | – |
| NCI-H661 | 0.486 | 0.364 | 0.458 | 0.455 | 0.413 | 0.409 | 0.409 | 0.408 | 0.905 | 0.919 | 0.995 | 1.06 | 0.296 | 0.329 | 0.298 | 0.299 | 0.471 |
| NCI-H727 | 0.811 | 0.658 | 0.755 | 0.817 | 0.635 | 0.641 | 0.613 | 0.664 | 0.306 | 0.345 | 0.296 | 0.294 | 0.618 | 0.607 | 0.568 | 0.499 | – |
| NCI-H838 | 1.17 | 0.871 | 0.855 | 1.1 | 0.225 | 0.214 | 0.198 | 0.227 | 0.332 | 0.333 | 0.273 | 0.299 | 0.607 | 0.609 | 0.557 | 0.669 | 0.816 |
| NCI-H1355 | 1.11 | 1.03 | – | 1.19 | 0.411 | 0.424 | 0.441 | 0.404 | 0.72 | 0.632 | 0.729 | 0.76 | 0.53 | 0.445 | 0.482 | 0.494 | – |
| NCI-H1395 | 1.02 | 0.821 | 0.85 | 0.973 | 0.565 | 0.531 | 0.654 | 0.623 | 0.634 | 0.592 | 0.892 | 0.712 | 0.465 | 0.445 | 0.454 | 0.46 | – |
| NCI-H1437 | 0.756 | 0.911 | 0.785 | 0.816 | 0.308 | 0.318 | 0.319 | 0.318 | 1.17 | 1.14 | 1.14 | 1.4 | 0.326 | 0.352 | 0.31 | 0.313 | 0.687 |
| NCI-H1650 | 1.12 | 0.639 | 0.953 | 1.11 | 0.325 | 0.35 | 0.445 | 0.297 | 0.19 | 0.193 | 0.216 | 0.226 | 0.542 | 0.625 | 0.411 | 0.468 | 0.632 |
| NCI-H1651 | 0.818 | 0.84 | 0.938 | 0.834 | 0.503 | 0.494 | 0.502 | 0.56 | 0.979 | 0.891 | 0.921 | 1.08 | 0.37 | 0.34 | 0.341 | 0.301 | 0.849 |
| NCI-H1666 | – | 0.623 | 0.629 | 0.745 | 0.683 | 0.69 | 0.595 | 0.526 | 0.954 | – | 1.07 | 1.01 | 0.562 | – | 0.563 | 0.633 | 0.547 |
| NCI-H1734 | 1.02 | 0.629 | 0.747 | 0.785 | 0.347 | 0.288 | 0.323 | 0.308 | 0.225 | 0.228 | 0.173 | 0.203 | 0.403 | 0.355 | 0.369 | 0.298 | – |
| NCI-H1755 | 1.07 | 0.928 | 1 | 0.986 | 0.494 | 0.388 | 0.453 | 0.422 | 0.432 | 0.498 | 0.315 | 0.476 | 0.638 | 0.608 | 0.611 | 0.62 | 0.957 |
| NCI-H1792 | 0.881 | 0.813 | 0.792 | 0.912 | 0.614 | 0.587 | 0.653 | 0.546 | 0.331 | 0.355 | 0.376 | 0.523 | 0.314 | 0.303 | 0.45 | 0.237 | – |
| NCI-H1793 | 1 | 0.598 | 0.741 | 0.612 | 0.294 | – | 0.314 | 0.269 | 0.165 | 0.217 | 0.213 | 0.192 | 0.284 | 0.331 | 0.415 | 0.358 | 0.522 |
| NCI-H1915 | 0.985 | 0.781 | 0.654 | 0.673 | 0.549 | 0.499 | 0.526 | 0.546 | 0.84 | 0.739 | 0.765 | 0.916 | 0.366 | 0.374 | 0.363 | 0.384 | 1.04 |
| NCI-H1944 | 0.924 | 0.613 | 0.898 | 0.788 | 0.303 | 0.326 | 0.337 | 0.32 | 0.73 | 0.713 | 0.771 | 0.718 | 0.228 | 0.202 | 0.2 | 0.161 | 0.835 |
| NCI-H1975 | 0.858 | 0.881 | 0.84 | 0.786 | 0.497 | 0.446 | 0.518 | 0.624 | 0.198 | 0.275 | 0.233 | 0.246 | 0.432 | 0.413 | 0.413 | 0.418 | 0.914 |
| NCI-H1993 | 0.729 | 0.754 | 0.713 | 0.882 | 0.655 | 0.696 | 0.69 | 0.745 | 0.645 | 0.741 | 0.777 | 0.818 | 0.498 | 0.493 | 0.518 | 0.562 | 0.696 |
| NCI-H2009 | 1 | 0.872 | 0.606 | 0.484 | 0.247 | 0.25 | 0.257 | 0.246 | 1.13 | 1.07 | 1.19 | 1.3 | 0.572 | 0.56 | 0.577 | 0.617 | 0.311 |
